Legend:
[1] = test system: non-small cell lung cancer; test: Earlier lines of therapy of trial patients 234008 and 211105 (case history); format: in vivo, human
[2] = test system: Bone marrow derived BMDCs; test: BMDC co-culture with irradiated KPL9-3-1 tumor cells, IFN beta ELISA; format: cell-based, mouse; details: BGB324 40 nM, 24 h; supernatant ELISA; versus DMSO
Experimental: Bone marrow derived BMDCs (2×10^5) were co-cultured with […] irradiated KPL9-3-1 tumor cells (2×10^6), with or without BGB324 treatment (40 nM). After 24 h, the cell supernatant was collected for analysis. The concentration of […] was measured by VeriKine-HS Mouse IFN Beta Serum ELISA kit (PBL Assay Science, Cat #42410), or VerKine Human IFN Beta ELISA kit (PBL Assay Science, Cat #414101) in accordance with the manufacturer's instructions. The plates were visualized by adding 100 μL of TMB solution and read at 450 nm using the SPECTROstarNano (BMG LABTECH).
The cells were treated with BGB324 or DMSO.

[3] = test system: CD8^+ T cell clusters in KPL9-3-1 TME; test: scRNAseq with paired TCR sequencing of CD8^+ T cell clusters in KPL9-3-1 tumors; format: in vivo, mouse; details: observed versus expected cell number per cluster
Experimental: The immune landscape of the tumors from each treatment group was assessed using scRNAseq of immune cells. Sequenced scRNA-seq samples were processed through Cellranger pipelines (v3.1.0). Cellranger count was used to align reads to mouse reference genome (mm10, 2020-A, from 10× Genomics) and generate single cell feature counts for single library.
For scTCR-seq data, TCR reads were aligned to reference genome and TCR annotation was performed using the 10×cellranger vdj pipeline with provided reference (cellranger-vdj-GRCm38-alts-ensemb1-4.0.0). Overall, 94% of T cells in scRNA-seq data were assigned a TCR and more than 70% had at least one full-length productive CDR3 for both TRA and TRB. The clonotype of each T cell was represented by the beta CDR3 sequences, and clone sizes ranged from 1 cell to 580 cells. Cellranger aggr were applied next to aggregate each sample library for grouped analysis with same effective sequencing depth. Seurat (3.2.1) package was used for downstream analysis.
To determine the potential lineage differentiation between those T cell populations with high TCR sharing. Monocle (version 2.0) (PMID: 24658644) was used to investigate transcriptional and developmental trajectories concerning different CD8+ or CD4+ T cell clusters. The data of raw counts together with cluster annotations were taken as input to monocle, and the default parameters were set to run data normalization and dimension reduction. Next, Monocle leaned the kinetics of gene expression by using the reversed graph embedding approach and places each cell along an inferred pseudotime trajectory. According to the assumption that the trajectory has a tree structure, functional “State” is identified based on the segment of the tree-like structure. […]
Treatment enriched cells in each cluster were calculated and compared based on the number of cells observed divided by expected number of cells in each cluster (FIG. 8D).

[4] = test system: Kras^G12D, p53^−/− STK11^−/− mutant (KPL9-3) mouse lung cancer-derived cells; test: Subcutaneous KPL9-3 tumors in immune-competent mice, tumor volume; format: in vivo, mouse (C57Bl/6); details: anti-PD1 10 mg/kg i.p. twice a week for two weeks, BGB324 50 mg/kg oral gavage twice daily, or both
Experimental: Kras^G12D, p53^−/− mutant (KP9-1) or Kras^G12D, p53^−/− STK11^−/− mutant (KPL9-3) mouse lung cancer-derived cell lines were prepared using standard techniques known in the art. KP9-1 or KPL9-3 cells were propagated at sub-confluence and split on a regular basis.
Each animal was weighed before cell implantation. Injection of cells was performed after anesthetizing of the mice. The cell lines discussed above were injected subcutaneously into immune-competent mice (C57Bl/6 strain).
Mice were treated with either placebo or anti-PD1 therapeutic (200 μg/mouse, intraperitoneal, twice a week for two weeks).Tumor volume was assessed using hand held callipers and mouse weight were followed.
The Kras^G12D, p53^−/− STK11^−/− mutant (KPL9-3) mouse lung cancer-derived cells described above were implanted subcutaneously in immune-competent mice (C57Bl/6 strain) using the same protocol as described above.
Mice were treated with either placebo, anti-PD1 therapeutic (10 mg/kg, intraperitoneal, twice a week for two weeks), BGB324 (50 mg/kg, oral gavage, twice daily) or a combination of both drugs. Tumor volumes were measured.

[5] = test system: KPL9-3-1 tumor cells; test: KPL9-3-1 subcutaneous allograft tumor growth; format: in vivo, mouse (C57BL/6J); details: KPL9-3-1 tumors; BGB324 50 mg/kg oral gavage twice daily, anti-PD-1 10 mg/kg i.p., alone or in combination; 3 weeks
Experimental: (§1) Control group were treated with control IgG (10 mg/kg) and vehicle (50 mg/kg). Tumor growth was measured every 3 days. […] The ratio of observed cell numbers to random expectation estimated by Roie index through chi-square test. +++ (Roien, P<0.05) represents highly enriched, ++ (1.2≤Ro/e<3, P<0.05) represents enriched, + (0.8≤Ro/e<1.2, P<0.05) represents weakly enriched, − (0<Ro/e<0.8, P<0.05) represents not significant or reduced.
For subcutaneous allografts, 1×10^6 cells in 100 ul phosphate buffered saline (PBS) were injected into the right dorsal flanks of 6-8 wks old mice. For xenografts growing on humanized mice, 1.5×10^6 cells in 100 ul phosphate buffered saline (PBS) were injected into the right dorsal flanks of reconstituted humanized mice.
Tumor bearing mice were randomly assigned into treatment groups when the tumor grew to around 100-150 mm^3. For each treatment group, 5 mice were assigned. 10 mg/kg anti-PD-1 (BioXCell, Cat #BE0146) treatment was given intraperitoneally on day 0, day 4 and day 7 after innoculation. The control group was treated with 10 mg/kg rat IgG2a isotype control (BioX Cell, Cat #BE0089) at the same day of PD-1 treatment, intraperitoneally. For the tumor growth measurement experiment, mice were treated for 3 weeks. […] Tumor volumes were measured by length (a), width (b) and height (h) in every 3 days and calculated as tumor volume=abh. […]

[6] = test system: TCF1^+PD-1^+ CD8^+ T cells in KPL9-3-1 tumors; test: Tumor microenvironment analysis of KPL9-3-1 tumors (flow cytometry, IHC); format: in vivo, mouse (C57BL/6J)
Experimental: as §1
KPL9-3-1 allograft were implanted into mice as described above. 5 mice were assigned into each treatment group. 10 mg/kg anti-PD-1 (BioXCell, Cat #BE0146) treatment was given intraperitoneally on day 0, day 4 and day 7 after treatment. Control group of PD-1 treatment was treated with 10 mg/kg rat IgG2a isotype control (BioX Cell, Cat #BE0089) at the same day of PD-1 treatment, intraperitoneally. BGB324 were given through oral gavage twice daily, with a dose of 50 mg/kg.
For tumor growth measurement experiment, mice were treated for 3 weeks. For tumor microenvironment analysis, mice were treated for 7 days, when the tumor sizes in each treatment group are within 2-fold differences.Seven days after tumor inoculation, mice were treated with either BGB324 or anti-PD-1 alone, or in combination.

[7] = test system: OT-1 CD8^+ T cells; test: BMDC co-culture with OT-1 CD8^+ T cells stimulated with ovalbumin, TCF1 expression by flow cytometry; format: cell-based, mouse; details: co-cultures of BMDC with OT-1 CD8^+ T cells stimulated by ovalbumin
[8] = test system: Kras^G12D, p53 WT STK11^−/− mutant human A549 lung cancer cells; test: A549 xenografts in humanized mice, tumor volume; format: in vivo; details: anti-PD1 10 mg/kg i.p. 3 dosages, BGB324 50 mg/kg oral gavage twice daily for 3 weeks, or both
Experimental: Human non-small cell lung cancer (NSCLC) cells Kras^G12D, p53 WT STK11^−/− mutant human A549 lung cancer cells were cultured using standard protocols.
Each animal was weighed before cell implantation. Injection of the cells was performed after anesthetizing of the mice. Kras^G12D, p53 WT STK11^−/− mutant human A549 lung cancer cells were implanted subcutaneously in humanized immune-deficient mice.
Mice were treated with either placebo, anti-PD1 therapy (10 mg/kg, intraperitoneal, 3 dosages), BGB324 (50 mg/kg, oral gavage, twice daily for 3 weeks) or a combination of both drugs.

[9] = test system: TCF1^+PD-1^+ cells among CD8^+ TILs; test: Intratumoral injection of IFNα, TCF1^+PD-1^+ CD8^+ TILs; format: in vivo, mouse; details: IFNα 200 ng intratumoral, 48 h
Experimental: Tumor tissues were excised and digested with 2 mg/mL Collagenase A (Sigma, Cat #SCR136) and 1 mg/ml DNase I (Roche, Cat #11284932001) under 37° C., 150 rpm shaking speed for 45 min. Digested materials then were transferred to a 70 μm cell strainer to remove clumped cells. Digested cells were washed twice with FACs buffer and ready for flow cytometry analysis.

carboplatin and paclitaxel
duration of response to first-line therapy before progression ([1]; patient 234008): 22 months
response to first-line therapy ([1]; patient 234008, before enrolling in the study): partial response

Nc1nc(Nc2ccc3c(c2)CC[C@@H](N2CCCC2)CC3)nn1-c1cc2c(nn1)-c1ccccc1CCC2 [BGB324, 1-(6,7-dihydro-5H-benzo[6,7]cyclohepta[1,2-c]pyridazin-3-yl)-N^3-((7-(S)-pyrrolidin-1-yl)-6,7,8,9-tetrahydro-5H-benzo[7]annulene-2-yl)-1H-1,2,4-triazole-3,5-diamine]
secretion of Interferon type 1β (IFNβ) [2]: increased
enrichment of clonal expanded CD8^+ T cells (unique TCRs) [3]: enriched CD8^+ T cells expressing unique TCRs (clonal expanded) significantly
enrichment of exhaustive effector CD8^+ T cells [3]: also enriched
enrichment of stem like T cells [3]: also enriched
tumor sensitivity to therapy (tumor volume) [4]: resistant
tumor growth control [5]: Neither single treatment resulted in tumor growth control
infiltration of TCF1+PD-1^+ CD8^+ T cells ([6]; flow cytometry, day 7 after treatment started): increased
TCF1^+PD-1^+ CD8^+ T cell presence in the tumor ([6]; immunohistochemistry): enhanced
distribution of CD8+ cells relative to tumor islands ([6]; immunohistochemistry): large population of CD8+ cells, but these are grouped together, excluded from the tumor islands
TCF1^+ expression on CD8^+ T cells [7]: increased
tumor sensitivity to therapy (tumor volume) [8]: resistant

IFNα [reference compound]
TCF1^+PD-1^+ cells among CD8^+ TILs after intratumoral injection [9]: phenocopied
TCF1^+ expression on CD8^+ T cells [7]: increased

pembrolizumab: anti-PD-1 antibody, immune checkpoint inhibitor
duration of clinical benefit before progression ([1]; patient 211105, monotherapy after first-line progression): 18 months
